Measured values published in patent EP1228058B1, “BENZOPYRANYL GUANIDINE DERIVATIVES, PROCESS FOR PREPARATION THEREOF, AND PHARMACEUTICAL COMPOSITIONS CONTAINING THEM” (Dongbu Hannong Chemical Co., Ltd., priority 1999, dated 2001).
pIC50: −log10 of the molar value. Values belong to the compound of their own block, whether it stands above or below them.

Legend:
[1] = system: ischemic heart models of beagle dogs; assay: Heart protective (anti-ischemic) activity in ischemic heart models of anesthetized beagle dogs; format: in vivo; details: total dose 2 mg/kg infused i.v. over 40 min, 90 min occlusion, 5 h reperfusion
Method: In order to determine whether the compounds of the formula 1 are protective for the ischemic hearts of larger animals, experiments determining the anti-ischemic effects of the compounds on beagle dogs were conducted as follows. The experiments on beagle dogs followed the method of Grover et al.' (G. J. Grover et al., J. Cardiovasc. Pharmacol. 25, 40 (1995)).
After being anesthetized by an intravenous injection of pentobarbital at a dose of 35 mg/kg, male beagle dogs (8-12 kg) were further infused with pentobarbital sodium at a dose of 3-4 mg/kg through the right cephalic vein throughout the experiments, so as to keep the anesthesia constant. […] The heart rate was measured by a tachometer, such as that manufactured by Gould Inc., OH, U.S.A., identified as Biotachometer. In addition, all of the changes occurring during the experiment were continuously recorded through the Gould 2000 chart recorder, manufactured by Gould Inc.
The fifth intercostal space was incised to open the thorax and the LAD was separated from its surrounding tissues. […] The LAD part upstream of the silk ligature was isolated from adjacent tissues and the blood flow was measured quantitatively. […] Using polygraph such as Grass Model 7E, the electrocardiogram was measured and read (Lead II). […]

[2] = system: rat aorta; assay: Vasodilation effects on isolated blood vessels of rats (methoxamine-constricted aortic rings); format: cell-based; details: isolated rat aorta constricted with methoxamine (3 uM); read-out: Vasodilation Activity (in Vitro, rat aorta) (IC50)
Description: Male Sprague-Dawly rats (350-450 g, obtained from the Experimental Animal Team of the Korea Research Institute of Chemical Technology) were knocked unconscious by hitting the occipital region, sacrificed by cervical dislocation, and underwent thoracotomy. After being quickly removed, the thoracic aorta was deprived of the adipose tissue and cut into aortic rings of 3 mm width. The aorta was lightly rubbed with a modified Krebs Henseleit buffer (Physiological Salt Solution, PSS) soaked cotton club to remove the inner epithelial layer therefrom. While being suspended in an organ bath containing a physiological buffer, the vascular tissue was allowed to equilibrate under a resting tension of 2 g and then, stand for 1 hour at 37 °C for stabilization with a supply of a carbogen consisting of 95% O2-5% CO2.
Thereafter, the vascular tissue was constricted with 10^-5 M phenylephrine and washed several times with PSS and this procedure was repeated again to ensure the stable reacivity of vascular smooth muscle to repetitive constriction/dilatation.
In addition, 3x10^-6 M methoxamine was used to induce an intensive constriction in the vascular smooth muscle. When the vasoconstriction induced by the methoxamine reached and maintained a maximum, test compounds and controls were cumulatively added to the organ baths in concentrations of 1, 3, 10 and 30 uM so as to induce vasodilatation. As for the controls, they were Cromakalim and BMS-180448 (the compounds of the chemical formula 2), both known to be the first generation KATP activator with potent vasodilatation and cardioprotection effects.
Following the addition of the drugs, the change in the maximal constriction induced by methoxamine was calculated to plot a concentration-dilation response curve. Through a linear regression analysis, IC50, the drug concentration at which the vascular tissue is 50% dilated, was obtained for each drug.

[3] = system: ischemic heart models of rats; assay: Heart protective (anti-ischemic) activity in ischemic heart models of anesthetized rats; format: in vivo; details: 45 min occlusion, 90 min reperfusion
Method: Male rats (350-450 g, obtained from the Experimental Animal Team of the Korea Research Institute of Chemical Technology) were anesthetized by the intraperitoneal injection of pentobarbital at a dose of 75 mg/kg. After trachetomy, the rats were rendered to respire artificially at a rate of 60/min with a stroke volume of 10 ml/kg. Cannulars were inserted into the fermoral vein and the fermoral artery and used for drug administration and blood pressure measurement, respectively.
In the ischemic myocardium damage models, the body temperature has an important influence on the results. To avoid the change in the body temperature, a body temperature measuring probe was inserted into the rectum of each rat and the body temperature was constantly kept at 37 °C with the aid of a homeothermic blanket control unit.
Afterwards, during testing, a continuous measurement was made of the mean arterial blood pressures and heart rates from the rats. For the measurement of the blood pressure, a pressure transducer, such as that manufactured by Grass Ins., MA, U.S.A., identified as Model Statham P23XL, was used. The heart rate was measured by a tachometer, such as that manufactured by Gould Inc., OH, U.S.A., identified as Biotachometer. In addition, all of the changes occurring were continuously recorded through the Gould 2000 chart recorder, manufactured by Gould Inc.
The left coronary artery was occluded according to the Selye H. method as follows. The rats underwent a left thoracotomy operation for partial opening of the chest and the right-side chest was pressurized by the middle finger of the left hand to push the heart out. Immediately after the left anterior descending coronary artery hereinafter referred to as (LAD) was carefully stitched using a suture needle with 5-0 silk ligature, the heart was then repositioned in the thoracic cavity while both ends of the ligature were situated outside. The opposite ligature ends were passed through a PE tube (PE100, 2.5 cm) and allowed to stand loose for 20 min for stabilization. Via the cannula inserted into the femoral vein, vehicles or drugs were administered into the rats which were rendered to stand for 30 min in order to sufficiently elicit the efficacies of the drugs. BMS-180448 was used as a control drug and the i.v.administration dose was 0.3 mg/kg for all test drugs of interest and the control drug.
Next, the PE tube which had the doubled strands of the ligature passed therethrough was pushed toward the heart and then, set upright by tightly pulling end regions of the ligature with a hemostatic pincette while pressing the coronary artery. The PE tube was allowed to stand for 45 min for the occlusion of the coronary artery, followed by the removal of the hemostatic pincette and then, by the reperfusion for 90 min.
After the reocclusion of the coronary artery in accordance with the above procedure, the rats were administered with 2 ml of a 1% Evans blue through an intravenous route. Subsequently, an excess of pentobarbital was intravenously injected to kill the rats, after which the heart was removed and then, deprived of the right ventricle and both atria. The left ventricle was cut horizontally to the heart apex into 5 or 6 slices which were weighed. From the surface of each slice, images were input with the aid of a Hi-scope into a computer installed with an image analyzing program (Image Pro Plus). From the images input into the computer, the area of the normal blood stream tissue region which appeared blue in a computer monitor and the area which appeared colorless were measured. The percentage of the colorless area to the total area of each slice was calculated and multiplied by the weight of each slice to determine the area at risk (AAR) of each slice. […]

[4] = system: Rat aortic smooth muscle cells; assay: Inhibition of proliferation of vascular smooth muscle cells ([3H]-thymidine incorporation into DNA); format: cell-based; details: [^3H]-thymidine into DNA; angiotensin II (10^-7M) stimulated = 100; 72 hr
Method: Inhibitory effects on cell proliferation was evaluated by measurement of incorporation of [^3H]-thymidine into DNA. Rat aortic smooth muscle cells were grown in 24 well plate for 3 days to near confluence in DMEM containing 10% FBS, then DMEM containing FBS was washed out. Cells were cultured again in DMEM without serum for 48 hr to be quiescent. […] During the last 4 hours of incubation, [^3H]-thymidine (1 uCi/ml) was added. […] The samples were filtered through glass microfiber filter (GF/B. Whatmann) under vacuum. After washing the filters 3 times with 2 ml of an aqueous solution of 5% TCA, the radioactivity incorporated into DNA was counted by Liquid Scintillation Counter (Packard, TRI-CARB, 2100TR), then calculated incorporation % of [^3H]-thymidine.

[5] = Acute oral toxicity test in rats; details: rat, in vivo, single oral dose in 0.5% methyl cellulose, read-out: lethal dose (LD50) for oral administration
In short: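 Six-week-old SPF SD rats, two per group, received a single oral dose of 1 g/kg suspended in 0.5% methyl cellulose (10 ml/kg). Survivors at the end of observation underwent haematology, serum chemistry, necropsy and histopathology of vital organs with macroscopic lesions.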

[6] = system: diabetic rats; assay: Effects on MNCV (motor nerve conduction velocity) in diabetic rats; format: in vivo; details: MNCV; 100 mg/Kg, orally once a day, diabetic rats
Method: Diabetes was induced with i.p. (intra peritoneum) injection of streptozocin (65 mg/Kg) in rats, then test compounds dissolved in 2 ml of media (physiological saline: ethanol: tween 80 = 8:1:1), were orally administered once a day. Rats were anesthetized with halothane, then the sciatic nerve was exposed to measure MNCV. The nerve was stimulated at two points. The first stimulus electrode was inserted at proximal end, and second stimulating electrode was inserted at the sciatic notch. The coaxial needle electrode was inserted into interdigital muscle, then the muscle action potential induced by two point stimulation. The conduction velocity was calculated by dividing the distance between two stimulus points by the latency difference. Lipoic acid (100 mg/Kg) was used in comparison with the compound of formula 1 in recovery of impaired MNCV in diabetic rats. The recovery (%) of MNCV was calculated according to the following mathematical formula 4. [Mathematical formula 4] Recovery(%) =(MNCV of treated group - MNCV of diabetic rats)/(MNCV of normal control-MNCV of diabetic rats)x100 [formula]

[7] = system: diabetic rats; assay: Nociceptive test (hot plate test) in diabetic rats; format: in vivo; details: 50 °C hot plate
Method: Effects on nociceptive responses of test compounds in rats were examined using hot plate. The same methods were applied for the induction of diabetes and treatment of test compound in rats. Rats were placed onto 50 °C hot plate, then latencies of nociceptive action such as licking were determined. The recovery (%) of nociceptive responses in diabetic rats was calculated according to the following mathematical […]. [Mathematical formula 5] Recovery(%) =(Response in treated group - Response in diabetic control)/(Response in normal control-Response in diabetic control)x100 [formula]

pIC50 [2]: 5.86
SMILES: CC1(C)Oc2ccc(C#N)cc2[C@@H](NC(=NC#N)Nc2ccc(Cl)cc2)[C@@H]1O [BMS-180448, reference compound]
Anti-ischemic Activity (in vivo, dogs) (2 mg/kg/40 i.v.) min,i.v.) IZ/AAR (%) [1]: 38.02%
Anti-ischemic Activity (in vivo, rats) (0.3 mg/kg i.v.) IZ/AAR (%) [3]: 39.14%

SMILES: COC(OC)[C@]1(C)Oc2ccc([N+](=O)[O-])cc2[C@H](NC(=NC#N)NCc2ccccc2)[C@H]1O [Example 22, (2R, 3R, 4S)-N''-cyano-N (6-nitro-3,4-dihydro-3-hydroxy-2-methyl-2-dimethoxy methyl-2H-benzopyran-4-yl)-N'-benzylguanidine]
Incorporation % [4]: 64.0%
LD50 [5]: > 1000 mg/kg

SMILES: O=C(O)CCCCC1CCSS1 (centres unmarked) [Lipoic acid, reference compound]
Recovery (%) [6]: 136.6%
Nociceptive response ([7]; latency of licking): 4.371 s
Recovery (%) ([7]; nociceptive responses): 60.2%
